Test results published in patent US10383823B2 (Mallinckrodt LLC, priority 2013, dated 2019).

What was measured:
KB tumors = format: in vivo; conditions: KB tumored nude mice, dosed at 8 mg/kg cisplatin
[1] = mouse KB tumor model
[2] = test system: A427 human NSCLC xenografts; conditions: single treatment, 14 days post injection, equivalent cisplatin levels

SMILES: N.N.[Cl][Pt][Cl] [Cisplatin, (SP-4-2)-diamminedichloridoplatinum (II)]
- peak tumor DNA/Pt adduct (KB tumors): less than 10 pg of Pt/μg of DNA
- maximum tolerated dose (MTD) [1]: less than 10 mg/kg
- tumor growth inhibition [2]: 30%
